Experimental findings from patent US20050165080A1, “Method for the treatment of diseases requiring inhibition or a reduction in the activity of pH value-regulating bicarbonate transporter proteins” (Solvay Pharmaceuticals GmbH, priority 2002, published 2005) are described below.

Assay [1] concerns Na+-independent chloride-bicarbonate (Cl−/HCO3−) exchanger (AE) protein. Description: Intracellular pH recovery after alkalization (NH4Cl pulse) in BCECF-laden adult cardiac fibroblasts. The format is cell-based, Wistar rats. To be noted: for recovery after the intracellular alkalization, compared with guanabenz-pre-treated or non-pre-treated cells / percentage of the change in pH value still present, relative to the maximum alkaline pH value reached, after 5 min / percentage of the change in pH value still present, relative to the maximum alkaline pH value reached, after 8 min: 30 min preincubation; for recovery after the intracellular alkalization, compared with guanabenz-pre-treated or non-pre-treated cells: moxonidine 10^−6 to 10^−9 mole/liter, H2-DIDS 10^−3 mole/liter, NH4Cl pulse; for percentage of the change in pH value still present, relative to the maximum alkaline pH value reached, after 5 min / percentage of the change in pH value still present, relative to the maximum alkaline pH value reached, after 8 min: 10^−6 mole/liter, 5 mmole/liter NH4Cl pulse, cardiac fibroblasts, mean and standard deviation from 3 to 5 experiments; for percentage of the change in pH value still present, relative to the maximum alkaline pH value reached, after 5 min: 5 min after maximum alkaline pH; for percentage of the change in pH value still present, relative to the maximum alkaline pH value reached, after 8 min: 8 min after maximum alkaline pH. The procedure: (§1) The investigations were carried out on cardiac fibroblasts isolated from the left ventricle of the myocardium of 6-week-old Wistar rats. Myocardial tissue was placed in HBSS medium without Ca^2+ and Mg^2+ (GibcoBRL), cut into small pieces which were incubated with 1 mg/ml collagenase A (Roche) with continuous shaking for 10 minutes in HBSS medium. The first supernatant was discarded and the incubation operation was repeated three times, the supernatant being collected each time in a tube with 5 ml HBSS medium. After centrifuging at 160×g for 10 min, the pellet was re-suspended in a flask with DMEM (GibcoBRL), to which 10% foetal calf serum (FCS, from Sigma) was added. […] The flasks were incubated in an air-humidified incubator with 5% CO2 and at 37° C. Cardiac fibroblasts, which grew in a typical monolayer, were cultivated by standard cell culture techniques and at subconfluence were transferred into new flasks in a 1:3 ratio [Brilla et al. (1994) Collagen metabolism in cultured adult rat cardiac fibroblasts: response to agiotensin II and aldosterone. J. Mol. Cell Cardiol. 26: 809-820].
The intracellular pH value of an individual cell was measured using the fluorescent marker BCECF (2′,7′-bis-(2-carboxymethyl)-5-[and -6]-carboxyfluorescein from Molecular Probes), the fluorescent intensity of which is pH-dependent. The cardiac fibroblasts were grown on glass microscope slides until at subconfluence, and were then laden with BCECF-acetoxymethyl ester. The fibroblasts thus pre-treated were washed with PBS and then preincubated with various test solutions and then rinsed. In so doing, the intracellular fluorescence of the BCECF was measured using an inverted microscope, to which a “PTI 710 Photon Counting Detection” system (Photon Technology International) with two monochromators was connected. The data were analysed using a fluorescence spectrometer. The measurement results—fluorescence signals—were converted into pH values using a calibration curve.
Composition of the bicarbonate solution: 118 mmole/liter NaCl, 4.7 mmole/liter KCl, 2.5 mmole/liter CaCl2×2H2O, 1.6 mmole/liter MgCl2×7H2O, 24.9 mmole/liter NaHCO3, 1.2 mmole/liter KH2PO4, 5.6 mmole/liter glucose and either 0.4% or 10% FCS, equilibrated with 20% O2 and 5% CO2 for at least 30 minutes to ensure a pH value of 7.4.
The individual test solutions were based on the above bicarbonate solution and contained the following concentration of the compounds below: • 10^−6 mole/liter guanabenz (Sigma) • 10^−6 mole/liter to 10^−9 mole/liter moxonidine • 10^−3 mole/liter H2-DIDS (Molecular Probes) Intracellular alkalization of the cells was achieved by rinsing with a 5 mmole/liter NH4Cl-containing bicarbonate solution (NH4Cl pulse). Subsequent washing-out of the NH4Cl by rinsing the cells with fresh bicarbonate solution results in intracellular acidification.
The effect of moxonidine, DIDS and guanabenz on the change in the intracellular pH value after alkalization of the cells is determined by an NH4Cl pulse. To this end, the BCECF-laden cardiac fibroblasts were preincubated for 30 minutes with a bicarbonate test solution containing one of the above compounds. Then the response of the intracellular pH value of the cells thus pre-treated to a 5 mmole/liter NH4Cl pulse was measured over time. Also the change in pH value which took place during the subsequent washing-out of the NH4Cl (intracellular acidification) was further measured over time. […] To quantify the inhibitory effects, the percentage of the change in pH value still present relative to the maximum alkaline or maximum acidic pH value achieved was calculated.

Assay [2] relates to Na+/bicarbonate (Na+/HCO3−) cotransporter (NBC) protein or/and Na+-dependent chloride-bicarbonate (Cl−/HCO3−) exchanger (NDAE and N(D)CBE) protein. Description: Intracellular pH recovery after acidification (NH4Cl wash-out) in cardiac fibroblasts. The format is cell-based, Wistar rats. To be noted: recovery from intracellular acidification. The procedure:
as §1, with “Cardiac fibroblasts, which grew in a typical monolayer, were cultivated by standard cell culture techniques and at subconfluence were transferred into new flasks in a 1:3 ratio [Brilla et al. (1994) Collagen metabolism in cultured adult rat cardiac fibroblasts: response to agiotensin II and aldosterone. J. Mol. Cell Cardiol. 26: 809-820].” left out
The intracellular pH value of an individual cell was measured using the fluorescent marker BCECF (2′,7′-bis-(2-carboxymethyl)-5-[and -6]-carboxyfluorescein from Molecular Probes), the fluorescent intensity of which is pH-dependent. […] In so doing, the intracellular fluorescence of the BCECF was measured using an inverted microscope, to which a “PTI 710 Photon Counting Detection” system (Photon Technology International) with two monochromators was connected. The data were analysed using a fluorescence spectrometer. The measurement results—fluorescence signals—were converted into pH values using a calibration curve. […]

Structures are written as SMILES.

As to `O=S(=O)(O)c1cc(N=C=S)ccc1C=Cc1ccc(N=C=S)cc1S(=O)(=O)O` [DIDS, 4,4′-diisothiocyanostilbene-4,4′-disulfonate], the “recovery after the intracellular alkalization, compared with guanabenz-pre-treated or non-pre-treated cells” value in assay [1] is “considerably longer recovery”.
`N=C(N)N/N=C/c1c(Cl)cccc1Cl` [Guanabenz]: in assay [1], the “percentage of the change in pH value still present, relative to the maximum alkaline pH value reached, after 5 min” value stood at 20.6 ± 5.2% and the “percentage of the change in pH value still present, relative to the maximum alkaline pH value reached, after 8 min” value amounted to 9.9 ± 2.7%.
For the molecule `COc1nc(C)nc(Cl)c1NC1=NCCN1` [Moxonidine, 4-chloro-5-[(4,5-dihydro-1H-imidazol-2-yl)-amino]-6-methoxy-2-methylpyrimidine], in assay [1], the “percentage of the change in pH value still present, relative to the maximum alkaline pH value reached, after 5 min” value was 58.8 ± 12.0%; the “percentage of the change in pH value still present, relative to the maximum alkaline pH value reached, after 8 min” value amounted to 41.9 ± 24.4%; the “recovery after the intracellular alkalization, compared with guanabenz-pre-treated or non-pre-treated cells” value was “considerably longer recovery”. Further, the “inhibitory effect on the recovery from the alkaline pH (dose-effect curve)” value in assay [1] (concentration of 10^−8 mole/liter) is “significantly inhibitory action”. Further, in assay [2], the “inhibition of NBC or/and NDAE and N(D)CBE proteins (result in words)” value is on record as “selective inhibitor”.
